Tests used:
Klosneuvirus KNV1 APAH = system: T1, Klosneuvirus KNV1 APAH; assay: colorimetric acetate release; type: biochemical; details: 26 °C
T1 construct: 345 aa; expressed in E. coli, purified
Description: colorimetric acetate release on Klosneuvirus KNV1 APAH

Hyperionvirus sp. APAH = system: T2, Hyperionvirus sp. APAH; assay: colorimetric acetate release; type: biochemical; details: 26 °C
T2 construct: 351 aa; expressed in E. coli, purified
Description: colorimetric acetate release on Hyperionvirus sp. APAH

[1] = system: T3, UCP04 AdoMetDC homolog (pyruvoyl-dependent ODC); details: 26 °C
T3 construct: gene speD
Description: decarboxylase activity assay on UCP04 AdoMetDC homolog (pyruvoyl-dependent ODC)

Klosneuvirus KNV1 ODC = details: 26 °C
[2] = system: T4, LBP AdoMetDC homolog (pyruvoyl-dependent ODC); details: 26 °C
T4 construct: gene speD
Description: decarboxylase activity assay on LBP AdoMetDC homolog (pyruvoyl-dependent ODC)

[3] = system: T5, UCP03 AdoMetDC homolog (pyruvoyl-dependent ODC); details: 26 °C
T5 construct: gene speD
Description: decarboxylase activity assay on UCP03 AdoMetDC homolog (pyruvoyl-dependent ODC)

[4] = system: T6, UCP01 AdoMetDC homolog (pyruvoyl-dependent ODC); assay: decarboxylase activity assay; type: biochemical, uncultured Myoviridae sp.; details: 26 °C
T6 construct: gene speD; 117 aa; recombinant, purified; pyruvoyl enzyme
Description: decarboxylase activity assay on UCP01 AdoMetDC homolog (pyruvoyl-dependent ODC)

[5] = system: Yellowstone Lake phycodnavirus 2 ODC; details: 26 °C
Description: decarboxylase activity assay on Yellowstone Lake phycodnavirus 2 ODC

[6] = system: T7, UCP02 AdoMetDC homolog (pyruvoyl-dependent ODC); details: 26 °C
T7 construct: gene speD
Description: decarboxylase activity assay on UCP02 AdoMetDC homolog (pyruvoyl-dependent ODC)

[7] = system: T8, Pelagiphage HTVC201P "AdoMetDC" (pyruvoyl-dependent ADC); assay: decarboxylase activity assay; type: biochemical, Pelagibacter phage HTVC201P; details: 27 °C
T8 construct: gene speD; 122 aa; recombinant, purified; class 1b AdoMetDC homolog, pyruvoyl enzyme
Description: decarboxylase activity assay on Pelagiphage HTVC201P "AdoMetDC" (pyruvoyl-dependent ADC)

KNV1 arginase homolog = system: T9, KNV1 arginase homolog; assay: released urea detection; type: biochemical, Klosneuvirus KNV1
T9 construct: expressed in E. coli, purified

CC(=O)NCCCCNCCCN [N^8-acetylspermidine]
Km (Klosneuvirus KNV1 APAH): 450 ± 10 µM
Km (Hyperionvirus sp. APAH): 5 ± 0.73 mM

NCCC[C@H](N)C(=O)O [L-ornithine]
Km [1]: 440 ± 40 µM
Km (Klosneuvirus KNV1 ODC): 430 ± 20 µM
Km [2]: 3.8 ± 0.43 mM
Km [3]: 620 ± 10 µM
Km [4]: 5.5 ± 0.29 mM
Km [5]: 540 ± 200 µM
Km [6]: 2.4 ± 0.19 mM

CC(=O)NCCCNCCCCN [N^1-acetylspermidine]
Km (Klosneuvirus KNV1 APAH): 240 ± 20 µM
Km (Hyperionvirus sp. APAH): 1.6 ± 0.16 mM

N=C(N)NCCC[C@H](N)C(=O)O [L-arginine]
Km [7]: 870 ± 110 µM
Km [4]: 2.2 ± 0.29 mM
Km (KNV1 arginase homolog): 1.3 ± 0.16 mM

Reference: publication PMC9992855, “Functional polyamine metabolic enzymes and pathways encoded by the virosphere” (Proceedings of the National Academy of Sciences of the …, 2023)
